These results are taken from US6759397B2, “Ginsenoside chemotherapy” (The University of British Columbia, priority 2000, dated 2004).

SMILES strings stand for the structures. Where two headings read alike, the source gives them in different places.

For data set [1], the system named is MDA435/LCC6W cells. The experiment in a line: Viable cell count, Rh2 with paclitaxel, wild-type breast cancer cells. Format: cell-based. To be noted: Homo sapiens, L6W (wild-type MDA435/LCC6W).
Method: (§1) Human breast cancer cells MDA435/LCC6 cells, both wild-type (MDA435/LCC6W) or a drug resistant strain expressing a transfected multidrug resistant gene encoding P-glycoprotein (MDA435/LCC6M), were incubated with 20 μg/ml or 30 μg/ml of Rh2 in the presence of paclitaxel at various concentrations. Viable cells were counted 24 hrs after treatment.
In data set [2] the test system is MDA435/LCC6M cells. The experiment in a line: Viable cell count, Rh2 with paclitaxel, multidrug resistant breast cancer cells expressing P-glycoprotein. To be noted: for IC50: Homo sapiens, MDA435, 24 h.
Method: as §1
The test system of data set [3] is human prostate cancer cells LNCaP. As to the kind of experiment: Cytotoxicity of Rh2 with mitoxantrone or paclitaxel, cellular viability of LNCaP cells. The format is cell-based. From the text: In one aspect, the invention provides therapeutically synergistic effects of Rh2 with chemotherapeutic compounds.
The test system of data set [4] is Mesothelioma cells (MS-1 cells). As to the kind of experiment: Viability of non-Pgp multidrug resistant mesothelioma cells, Rh2 with cisplatin or paclitaxel. The format is cell-based.
Data set [5] concerns MDA435/LCC6M cells.
Method: as §1

Regarding `CC(=O)O[C@H]1C(=O)[C@@]2(C)[C@H]([C@H](OC(=O)c3ccccc3)[C@]3(O)C[C@H](OC(=O)[C@H](O)[C@@H](NC(=O)c4ccccc4)c4ccccc4)C(C)=C1C3(C)C)[C@]1(OC(C)=O)CO[C@@H]1C[C@@H]2O` [Paclitaxel], the IC50 is 248 nM in data set [1] (no Rh2, viable cells counted 24 hrs after treatment, read-out: Calculated IC50 of paclitaxel, Paclitaxel alone); 75 nM in data set [1] (with 20 μg/ml Rh2, 24 hrs, read-out: Calculated IC50 of paclitaxel, Pac. + 20 μg/ml Rh2); 25 nM in data set [1] (with 30 μg/ml Rh2, 24 hrs, read-out: Calculated IC50 of paclitaxel, Pac. + 30 μg/ml Rh2); 0.15 nM in data set [2] (read-out: Calculated IC50 of paclitaxel, Pac. + 20 μg/ml Rh2); less than 0.03 nM in data set [2] (read-out: Calculated IC50 of paclitaxel, Pac. + 30 μg/ml Rh2); 631 nM in data set [2] (read-out: Calculated IC50 of paclitaxel, Paclitaxel alone). Further, the “Paclitaxel concentration at which cytotoxicity was shown in the presence of Rh2” value in data set [2] (MDA435/LCC6M, with Rh2, as low as) worked out at 0.1 nM.
On to `CC(C)=CCC[C@](C)(O)[C@H]1CC[C@]2(C)[C@@H]1[C@H](O)C[C@@H]1[C@@]3(C)CC[C@H](O[C@@H]4O[C@H](CO)[C@@H](O)[C@H](O)[C@H]4O)C(C)(C)[C@@H]3CC[C@]12C` [Rh2], for which the “Cytotoxicity of Rh2 alone” value in data set [3] (20 μg/ml Rh2, LNCaP) was “little or no significant cytotoxicity alone”. Besides, the “Effect of Rh2 on cytotoxicity of paclitaxel” value in data set [3] (20 μg/ml Rh2, particularly 0.1 nM and 1 nM paclitaxel, LNCaP) was “added significantly to the cytotoxicity of paclitaxel”; in data set [5], “unexpectedly and significantly enhanced by Rh2”. For the same compound, the “Effect of Rh2 on cytotoxicity of mitoxantrone” value in data set [3] (20 μg/ml Rh2, wide range of mitoxantrone concentrations, LNCaP) is “added significantly to the cytotoxicity of mitoxatron”. In data set [4] (20 μg/ml Rh2, various cisplatin concentrations), the “Synergistic effect of Rh2 with cisplatin” value is listed as “significant”. For the same compound, in data set [4] (20 μg/ml Rh2, various paclitaxel concentrations), the “Synergistic effect of Rh2 with paclitaxel” value is recorded as “significant”. In addition, in data set [2] (MDA435/LCC6M, 20 or 30 μg/ml Rh2, 24 hrs), the “Effect of Rh2 alone on the cells” value is listed as “little or no effect on the cells”.
